# Source: ChEMBL document CHEMBL1153323, “Design, synthesis, and evaluation of peptidomimetics containing Freidinger lactams as STAT3 inhibitors” (Bioorg Med Chem Lett, 2009)
# Where a SMILES comes first, the peptide text is derived from it. [ ]: non-standard residue; d: D form. The star is where a group is joined. pY = N[C@@H](Cc1ccc(OP(=O)(O)O)cc1)C(=O)O; Cbz = O=C(OCc1ccccc1)*; NHBn = c1ccc(CN*)cc1
# Biological target: Signal transducer and activator of transcription 3 (Homo sapiens, UniProt P40763)
# Sequence (P40763 whole entry): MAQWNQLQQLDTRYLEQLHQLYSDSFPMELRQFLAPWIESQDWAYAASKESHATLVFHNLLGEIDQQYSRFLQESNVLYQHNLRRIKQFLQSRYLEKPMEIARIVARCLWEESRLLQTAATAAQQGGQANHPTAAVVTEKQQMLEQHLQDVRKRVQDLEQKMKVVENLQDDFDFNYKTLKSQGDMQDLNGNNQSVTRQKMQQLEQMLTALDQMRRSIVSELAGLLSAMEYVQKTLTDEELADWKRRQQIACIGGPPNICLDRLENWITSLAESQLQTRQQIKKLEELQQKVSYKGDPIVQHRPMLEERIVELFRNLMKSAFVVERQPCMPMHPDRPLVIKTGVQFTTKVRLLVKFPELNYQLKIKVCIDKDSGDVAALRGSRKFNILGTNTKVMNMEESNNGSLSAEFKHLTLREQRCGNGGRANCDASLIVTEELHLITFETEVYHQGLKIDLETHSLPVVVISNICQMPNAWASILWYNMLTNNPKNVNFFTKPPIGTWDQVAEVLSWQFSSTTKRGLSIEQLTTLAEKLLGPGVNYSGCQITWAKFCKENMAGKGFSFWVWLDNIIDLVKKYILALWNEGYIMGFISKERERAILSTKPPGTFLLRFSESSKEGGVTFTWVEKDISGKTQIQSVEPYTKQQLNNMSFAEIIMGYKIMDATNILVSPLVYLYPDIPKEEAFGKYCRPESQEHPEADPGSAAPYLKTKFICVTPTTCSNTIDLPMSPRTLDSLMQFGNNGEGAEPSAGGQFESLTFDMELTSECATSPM
# Assay: Displacement of fluorescent tagged beta-(Ala)-beta-(Ala)-G-pYLPQTV from human recombinant STAT3 by fluorescence polarization assay
row,Ki,SMILES
1,190 nM,NC(=O)CC[C@H](NC(=O)CN1CCCC[C@H](NC(=O)[C@H](Cc2ccc(OP(=O)(O)O)cc2)NC(=O)OCc2ccccc2)C1=O)C(=O)NCc1ccccc1
2,3130 nM,NC(=O)CC[C@H](NC(=O)CN1CCC[C@H](NC(=O)[C@H](Cc2ccc(OP(=O)(O)O)cc2)NC(=O)OCc2ccccc2)C1=O)C(=O)NCc1ccccc1
3,350 nM,CC(C)C[C@H](NC(=O)[C@H](Cc1ccc(OP(=O)(O)O)cc1)NC(=O)OCc1ccccc1)C(=O)N1CCC[C@H]1C(=O)N[C@@H](CCC(N)=O)C(=O)NCc1ccccc1 (Cbz-[pY]LPQ-NHBn)
